In patent publication US20140148484A1, “PYRAZOLE COMPOUNDS FOR TREATING HAIRLOSS” (Boehringer Ingelheim International GmbH, priority 2012, published 2014):

Molecular target: T1, human CRTH2 receptor (Homo sapiens, UniProt Q9Y5Y4)
T1 construct: host or cells: CHO-K1 (CHO-K1-hCRTH2 cells); membranes prepared in house from the purchased cell line
T1 sequence (Q9Y5Y4 1-395): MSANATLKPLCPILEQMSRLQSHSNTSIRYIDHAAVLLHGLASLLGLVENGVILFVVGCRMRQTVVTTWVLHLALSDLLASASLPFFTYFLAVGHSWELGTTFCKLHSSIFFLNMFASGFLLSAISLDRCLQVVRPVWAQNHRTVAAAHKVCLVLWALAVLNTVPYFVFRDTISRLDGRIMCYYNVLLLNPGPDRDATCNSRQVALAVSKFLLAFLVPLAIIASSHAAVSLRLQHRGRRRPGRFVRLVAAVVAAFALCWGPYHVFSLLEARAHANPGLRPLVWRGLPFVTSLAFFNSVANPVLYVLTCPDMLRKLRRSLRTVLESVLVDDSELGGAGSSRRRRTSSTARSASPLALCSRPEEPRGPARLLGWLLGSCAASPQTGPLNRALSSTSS
Experiment: Human CRTH2 receptor membrane radioligand binding assay (SPA, [3H]-PGD2)
Conditions: displacement of [3H]-PGD2 (1 nM) from CHO-K1-hCRTH2 cell membranes, 3 h room temperature
Description: Preparation of Human CRTH2 Receptor Membranes and Radioligand Binding Assay
The binding of CRTH2 antagonists is determined using membranes prepared from Chinese hamster ovary cells (CHO-K1 cells) transfected with the human CRTH2 receptor (CHO-K1-hCRTH2 cells, Perkin Elmer, Cat No ES-561-C). To produce cell membranes the CHO-K1-hCRTH2 cells are cultured in suspension in CHO SFMII medium supplemented with 400 μg/ml G418. The cells are harvested by centrifugation at 300 g for 10 min at room temperature. The cell pellet is resuspended in Phosphate Buffer Saline (PBS) including a protease inhibitor mix (Complete, Roche) and adjusted to a concentration of 10E7 cells/ml. The CHO-K1-hCRTH2 cells are disrupted by nitrogen […] to obtain the membrane preparation. Cell debris is removed by centrifugation (500 g at 4° C., 30 min) and the supernatant is transferred into fresh tubes followed by a second centrifugation at 40000 g for 1 h at 4° C. to sediment the membranes. The membranes are suspended in SPA incubation buffer (50 mM Tris HCl, 10 mM MgCl2, 150 mM NaCl, 1 mM EDTA, pH 7.4) without bovine serum albumin, homogenized by passing through a single use needle (Terumo, 23G×1″), and stored in aliquots at −80° C.
The CRTH2 receptor binding assay is performed in a scintillation proximity assay (SPA) format with the radioligand [^3H]-PGD2 (Perkin Elmer, NET616000MC). CHO-K1-hCRTH2 cell membranes are again homogenized by passing through a single use needle (Terumo, 23G×1″) and diluted in SPA incubation buffer in suitable concentrations (0.5-10 μg protein/well). The SPA assay is set up in 96 well microtiter plates (Perkin Elmer, CatNo. 6005040) in SPA incubation buffer with a final volume of 200 μl per well and final concentration of 50 mM Tris-HCl, 10 mM MgCl2, 150 mM NaCl, 1 mM EDTA pH 7.4, 0.1% bovine serum albumin). The SPA assay mixture contains 60 μl of the membrane suspension, 80 μl of Wheat Germ Agglutinin coated PVT beads (GE Healthcare, RPNQ-0001, 0.3 mg/well), 40 μl of [3H]-PGD2 diluted in SPA buffer to a final concentration of 1 nM (50 000 dpm) and 20 μl of the test compound (dissolved in dimethylsulfoxid). The SPA assay mixture is incubated for 3 h at room temperature. Bound radioactivity is determined with a scintillation counter (Micro Beta Trilux, Wallac).
The binding of [^3H]-PGD2 to CHO-K1-hCRTH2 cell membranes is determined in the absence (total binding, Bo) and presence (non-specific binding, NSB) of unlabelled PGD2 (1 μM, Cayman Chemical, Cat No 12010) or a reference CRTH2 antagonist (10 μM CAY10471, Cayman Chemical, Cat No 10006735).
Determination of the affinity of a test compound is calculated by subtraction of the non-specific binding (NSB) from the total binding (Bo) or the binding in the presence of the test compound (B) at a given compound concentration. […] The Bo−NSB value is set to 0% inhibition.

Row | SMILES | Ki [nM]
1 | Cc1nn(Cc2ccc(NC(=O)c3ccc(C(F)(F)F)cc3)cc2)c(C)c1CC(=O)O [Example 1.1] | 2.9
2 | Cc1cc(Cl)ccc1C(=O)Nc1ccc(Cn2nc(C)c(CC(=O)O)c2C)cc1 [Example 1.2] | 16.3
3 | Cc1nn(Cc2ccc(NC(=O)c3ccccc3)cc2)c(C)c1CC(=O)O [Example 1.3] | 30.8
4 | Cc1ccc(C(=O)Nc2ccc(Cn3nc(C)c(CC(=O)O)c3C)cc2)cc1 [Example 1.4] | 7.7
5 | COc1ccc(C(=O)Nc2ccc(Cn3nc(C)c(CC(=O)O)c3C)cc2)cc1 [Example 1.5] | 12.9
6 | Cc1nn(Cc2ccc(NC(=O)c3ccc(Cl)cc3)cc2)c(C)c1CC(=O)O [Example 1.6] | 3.5
7 | Cc1nn(Cc2ccc(NC(=O)c3ccc4ccccc4c3)cc2)c(C)c1CC(=O)O [Example 1.7] | 2.5
8 | Cc1nn(Cc2ccc(NC(=O)c3ccc(Cl)c(Cl)c3)cc2)c(C)c1CC(=O)O [Example 1.8] | 2.6
9 | Cc1nn(Cc2ccc(NC(=O)c3ccc4ccccc4n3)cc2)c(C)c1CC(=O)O [Example 1.9] | 28.3
10 | Cc1nn(Cc2ccc(NC(=O)CCc3ccccc3)cc2)c(C)c1CC(=O)O [Example 1.10] | 7.4
11 | Cc1cc(C(F)(F)F)ccc1C(=O)Nc1ccc(Cn2nc(C)c(CC(=O)O)c2C)cc1 [Example 1.11] | 2.7
12 | Cc1ccc(C(=O)Nc2ccc(Cn3nc(C)c(CC(=O)O)c3C)cc2)c(C)c1 [Example 1.12] | 12.9
13 | Cc1nn(Cc2ccc(NC(=O)/C=C/c3ccccc3)cc2)c(C)c1CC(=O)O [Example 1.13] | 4
14 | Cc1nn(Cc2ccc(NC(=O)/C=C/c3ccc(Cl)cc3)cc2)c(C)c1CC(=O)O [Example 1.14] | 1.1
15 | Cc1nn(Cc2ccc(NC(=O)c3ccc(C(C)(C)C)cc3)cc2)c(C)c1CC(=O)O [Example 1.15] | 0.2
16 | Cc1cc(Br)ccc1C(=O)Nc1ccc(Cn2nc(C)c(CC(=O)O)c2C)cc1 [Example 1.16] | 3.9
17 | Cc1cc(C(=O)Nc2ccc(Cn3nc(C)c(CC(=O)O)c3C)cc2)c(C)cc1Br [Example 1.17] | 2.5
18 | Cc1nn(Cc2ccc(NC(=O)c3ccc(Cl)cc3Cl)cc2)c(C)c1CC(=O)O [Example 1.18] | 17.9

Row | SMILES | Ki [nM]
19 | Cc1nn(Cc2ccc(NC(=O)c3ccc(Cl)cc3F)cc2)c(C)c1CC(=O)O [Example 1.19] | 16.2
20 | Cc1ccc(C(=O)Nc2ccc(Cn3nc(C)c(CC(=O)O)c3C)cc2)c(F)c1 [Example 1.20] | 29.3
21 | Cc1ccc(C(=O)Nc2ccc(Cn3nc(C)c(CC(=O)O)c3C)cc2)c(C(F)(F)F)c1 [Example 1.21] | 80.2
22 | Cc1nn(Cc2ccc(NC(=O)c3ccc(C(F)(F)F)cc3F)cc2)c(C)c1CC(=O)O [Example 1.22] | 3320
23 | Cc1nn(Cc2ccc(NC(=O)c3cc4ccccc4cc3Cl)cc2)c(C)c1CC(=O)O [Example 1.23] | 5.7
24 | Cc1cc(C)c(C(=O)Nc2ccc(Cn3nc(C)c(CC(=O)O)c3C)cc2)c(C)c1 [Example 1.24] | 553
25 | Cc1cc2ccccc2cc1C(=O)Nc1ccc(Cn2nc(C)c(CC(=O)O)c2C)cc1 [Example 1.25] | 3.1
26 | Cc1nn(Cc2ccc(NC(=O)c3ccc4ccccc4c3C)cc2)c(C)c1CC(=O)O [Example 1.26] | 36
27 | Cc1nn(Cc2ccc(NC(=O)c3ccc(Br)cc3Cl)cc2)c(C)c1CC(=O)O [Example 1.27] | 9.3
28 | Cc1nn(Cc2ccc(NC(=O)c3ccc(Cl)cc3Br)cc2)c(C)c1CC(=O)O [Example 1.28] | 12.4
29 | Cc1nn(Cc2ccc(NC(=O)c3cccc4c3CCCC4)cc2)c(C)c1CC(=O)O [Example 1.29] | 2.5
30 | Cc1nn(Cc2ccc(NC(=O)c3ccc4ccccc4c3Br)cc2)c(C)c1CC(=O)O [Example 1.30] | 14.6
31 | Cc1ccc(Br)c(C(=O)Nc2ccc(Cn3nc(C)c(CC(=O)O)c3C)cc2)c1 [Example 1.31] | 18.9
32 | Cc1nn(Cc2ccc(NC(=O)C(C)C)cc2)c(C)c1CC(=O)O [Example 1.32] | 32.5
33 | Cc1nn(Cc2ccc(NC(=O)C3CCCCC3)cc2)c(C)c1CC(=O)O [Example 1.33] | 29.8
34 | Cc1nn(Cc2ccc(NC(=O)C3[C@H]4C[C@@H]5C[C@@H](C[C@H]3C5)C4)cc2)c(C)c1CC(=O)O (stereo partly shown) [Example 1.34] | 4
35 | Cc1nn(Cc2ccc(NC(=O)C3CCC3)cc2)c(C)c1CC(=O)O [Example 1.35] | 44.6

Further lines, results first:

Row | Ki [nM] | SMILES
36 | 0.2 | CCc1nn(Cc2ccc(NC(=O)c3ccc(C(F)(F)F)cc3)cc2)c(CC)c1CC(=O)O [Example 2.1]
37 | 1.1 | CCc1nn(Cc2ccc(NC(=O)c3ccc(Cl)cc3C)cc2)c(CC)c1CC(=O)O [Example 2.2]
38 | 3.4 | CCc1nn(Cc2ccc(NC(=O)c3ccccc3)cc2)c(CC)c1CC(=O)O [Example 2.3]
39 | 1.3 | CCc1nn(Cc2ccc(NC(=O)c3ccc(C)cc3)cc2)c(CC)c1CC(=O)O [Example 2.4]
40 | 0.75 | CCc1nn(Cc2ccc(NC(=O)c3ccc(Cl)cc3)cc2)c(CC)c1CC(=O)O [Example 2.5]
41 | 0.25 | CCc1nn(Cc2ccc(NC(=O)c3ccc(Cl)c(Cl)c3)cc2)c(CC)c1CC(=O)O [Example 2.6]
42 | 12.9 | Cc1c(CC(=O)O)c(C2CCCCC2)nn1Cc1ccc(NC(=O)c2ccc(C(F)(F)F)cc2)cc1 [Example 2.7]
43 | 1.3 | Cc1nn(Cc2ccc(NC(=O)c3ccc4ccccc4c3)cc2)c(-c2ccccc2)c1CC(=O)O [Example 2.8]
44 | 1.8 | Cc1nn(Cc2ccc(NC(=O)c3ccc(C(F)(F)F)cc3)cc2)c(-c2ccccc2)c1CC(=O)O [Example 2.9]
45 | 0.8 | Cc1nn(Cc2ccc(NC(=O)c3ccc(Cl)c(Cl)c3)cc2)c(-c2ccccc2)c1CC(=O)O [Example 2.10]
46 | 1.2 | Cc1c(CC(=O)O)c(-c2ccccc2)nn1Cc1ccc(NC(=O)c2ccc(C(F)(F)F)cc2)cc1 [Example 2.11]
47 | 2.3 | Cc1c(CC(=O)O)c(-c2ccccc2)nn1Cc1ccc(NC(=O)c2ccc3ccccc3c2)cc1 [Example 2.12]
48 | 2.9 | Cc1c(CC(=O)O)c(-c2ccccc2)nn1Cc1ccc(NC(=O)c2ccc(Cl)c(Cl)c2)cc1 [Example 2.13]
49 | 0.2 | CCc1nn(Cc2ccc(NC(=O)c3ccc4ccccc4c3)cc2)c(CC)c1CC(=O)O [Example 2.14]
50 | 1.4 | CCc1nn(Cc2ccc(NC(=O)c3ccc(C)cc3C)cc2)c(CC)c1CC(=O)O [Example 2.15]
51 | 23.9 | CCc1nn(Cc2ccc(NC(=O)[C@H]3CC[C@@H](C(F)(F)F)CC3)cc2)c(CC)c1CC(=O)O [Example 2.16]
52 | 0.7 | CCc1nn(Cc2ccc(NC(=O)c3ccc(Br)cc3C)cc2)c(CC)c1CC(=O)O [Example 2.17]
53 | 2.8 | CCc1nn(Cc2ccc(NC(=O)C3CCCCC3)cc2)c(CC)c1CC(=O)O [Example 2.18]
54 | 5.8 | CCc1nn(Cc2ccc(NC(=O)c3cc(C)ccc3Br)cc2)c(CC)c1CC(=O)O [Example 2.19]
55 | 13.9 | CCc1nn(Cc2ccc(NC(=O)c3cccc(Cl)c3Cl)cc2)c(CC)c1CC(=O)O [Example 2.20]
56 | 0.5 | CCc1nn(Cc2ccc(NC(=O)c3cccc4c3CCCC4)cc2)c(CC)c1CC(=O)O [Example 2.21]
57 | 1.9 | CCc1nn(Cc2ccc(NC(=O)c3ccc(Br)cc3Cl)cc2)c(CC)c1CC(=O)O [Example 2.22]
58 | 6.1 | CCc1ccccc1C(=O)Nc1ccc(Cn2nc(CC)c(CC(=O)O)c2CC)cc1 [Example 2.23]
